Results: article PMC6934227, “GPR101 mediates the pro-resolving actions of RvD5n-3 DPA in arthritis and infections” (The Journal of Clinical Investigation, 2019)

Legend:
Type in all cases: cell-based
[1] = target: T1, GPR101 (Homo sapiens, UniProt Q96P66); assay: tritiated radioligand saturation binding on GPR101-overexpressing CHO cells (plus homologous competition, IC50 […])
T1 construct: GPR101-overexpressing CHO cells
T1 sequence (Q96P66 1-508): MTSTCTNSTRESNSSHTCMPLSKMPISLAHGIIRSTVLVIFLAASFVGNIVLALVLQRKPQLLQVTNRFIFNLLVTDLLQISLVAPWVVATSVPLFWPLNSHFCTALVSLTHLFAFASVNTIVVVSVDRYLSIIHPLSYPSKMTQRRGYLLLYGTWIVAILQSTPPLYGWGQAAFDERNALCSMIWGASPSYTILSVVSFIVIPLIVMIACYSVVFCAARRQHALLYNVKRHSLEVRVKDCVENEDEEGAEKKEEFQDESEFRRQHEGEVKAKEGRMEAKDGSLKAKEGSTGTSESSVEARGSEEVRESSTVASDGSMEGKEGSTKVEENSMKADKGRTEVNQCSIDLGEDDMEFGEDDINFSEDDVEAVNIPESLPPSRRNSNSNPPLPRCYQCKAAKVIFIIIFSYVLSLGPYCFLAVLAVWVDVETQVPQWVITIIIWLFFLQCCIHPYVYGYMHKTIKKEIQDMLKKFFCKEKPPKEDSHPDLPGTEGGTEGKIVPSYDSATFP
From the text: These experiments yielded a calculated KD

[2] = target: T2, GPR32 (DRV1) (Homo sapiens, UniProt O75388); assay: PathHunter β-arrestin recruitment in CHO cells
T2 construct: CHO cells stably expressing human recombinant GPR32 coupled to a β-arrestin reporter system

[3] = target: T2, GPR32 (DRV1); assay: PathHunter β-arrestin recruitment in CHO cells (reference agonist)

T2 sequence (O75388 whole entry): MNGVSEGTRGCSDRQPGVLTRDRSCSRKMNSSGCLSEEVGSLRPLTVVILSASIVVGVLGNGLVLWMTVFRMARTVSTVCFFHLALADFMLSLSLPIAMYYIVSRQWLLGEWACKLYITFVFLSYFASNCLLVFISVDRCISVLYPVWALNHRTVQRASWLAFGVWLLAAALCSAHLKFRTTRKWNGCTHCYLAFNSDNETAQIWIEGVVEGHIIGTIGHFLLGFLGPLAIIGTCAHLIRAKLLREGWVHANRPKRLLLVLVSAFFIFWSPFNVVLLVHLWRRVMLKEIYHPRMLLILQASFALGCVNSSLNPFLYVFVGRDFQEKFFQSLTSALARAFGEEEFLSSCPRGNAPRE

SMILES | Kd [1] | EC50 [2] | EC50 [3]
CC/C=C\C[C@H](O)/C=C/C=C\C/C=C\C=C\[C@@H](O)CCCCCC(=O)O [RvD5n-3 DPA, 7S,17S-dihydroxy-8E,10Z,13Z,15E,19Z-docosapentaenoic acid] | ~6900 pM | ~14 pM | 
CC/C=C\C[C@H](O)/C=C/C=C\C=C\C=C\[C@@H](O)[C@@H](O)C/C=C\CCC(=O)O [RvD1, 7S,8R,17S-trihydroxy-4Z,9E,11E,13Z,15E,19Z-docosahexaenoic acid] |  |  | ~1.5 pM
